Consider 2 compounds from publication PMC11995222, “Synthesis and Evaluation of Thiazolidinone-Isatin Hybrids for Selective Inhibition of Cancer-Related Carbonic Anhydrases” (ACS Medicinal Chemistry Letters, 2025).

The nature of data set [1]: Cellular toxicity assay (MTT). Format: cell-based, human. To be noted: human, HuH-7 cells, MTT.
The test system of another data set is HuH-7 cells. Description: Cellular toxicity assay (MTT). To be noted: HuH-7 cells, 24, 48 and 72 h, up to 100 µM. Format: cell-based, human.

“Also recorded” adds a separate entry of the source.

Usually CC50 stands for the concentration giving 50% cytotoxicity. `CC[C@@]1(O)C(=O)OCc2c1cc1n(c2=O)Cc2cc3ccccc3nc2-1` [Camptothecin, reference compound] showed a CC50 at 24 h in data set [1] (24h) greater than 10 µM. This compound had a CC50 at 48 h in data set [1] (48h) of 8.5 ± 0.9 µM. Also, the CC50 at 72 h in data set [1] (72h) worked out at 0.5 ± 0.02 µM.
With `NS(=O)(=O)c1ccc(/N=C2\S/C(=C3\C(=O)Nc4c(F)cccc43)C(=O)N2C2CC2)cc1` [compound 3h], in the data set on HuH-7 cells, the “toxicity (in words)” value was “weak toxicity; also recorded: nontoxic”. Further, the CC50 at 24 h in data set [1] (24h) is greater than 100 µM. The viability at 24 h, 100 µM in data set [1] (24h, highest concentration (100 µM), read-out: Percentage of HuH-7 cells viability at the highest compound concentration tested, 24h) was 70%. Also, the CC50 at 48 h in data set [1] (48h) is greater than 100 µM. Also, the viability at 48 h, 100 µM in data set [1] (48h, highest concentration (100 µM), read-out: Percentage of HuH-7 cells viability at the highest compound concentration tested, 48h) is 60%. Besides, the CC50 at 72 h in data set [1] (72h) is greater than 100 µM. Moreover, in data set [1] (72h, highest concentration (100 µM), read-out: Percentage of HuH-7 cells viability at the highest compound concentration tested, 72h), the viability at 72 h, 100 µM amounted to 60%.
